The values below are quoted from earlier work in patent publication US20150025006A1, “Pharmaceutical Combinations Including Anti-Inflammatory and Antioxidant Conjugates Useful for Treating Metabolic Disorders” (Genmedica Therapeutics SL, priority 2011, published 2015).

The test system of series [1] is Zucker fa/fa rats or ob/ob mice. The following applies: 120 mg/kg/day, subcutaneous infusion, 3-4 weeks.
The subject of series [2] is human diabetic patients. Conditions: 4.5 g/day of salsalate.

`O=C(O)c1ccccc1O` [Salicylate]: the anti-diabetic effects entry in series [1] was “anti-diabetic effects, reduction in fasting blood glucose, and glucose tolerance improvement”.

`O=C(Oc1ccccc1C(=O)O)c1ccccc1O` [salsalate]: in series [2], the “side effects, such as tinnitus, enhanced by” value was 66%.
